From ChEMBL document CHEMBL1152913, “Discovery of 4-azaindoles as novel inhibitors of c-Met kinase” (Bioorg Med Chem Lett, 2009)
The source made the active and inactive calls. No cut-off for these calls is given here.

How the values were obtained:
[1] = target: Mitogen-activated protein kinase 3 (Homo sapiens) (UniProt P27361); experiment: Inhibition of ERK1 phosphorylation in human MKN45 cells after 1 hr by Western blot analysis; type: cell-based; conditions: MKN-45
[2] = target: T1, Hepatocyte growth factor receptor (Homo sapiens, UniProt P08581); experiment: Inhibition of c-Met phosphorylation in human A549 cells after 1 hr; type: cell-based
[3] = target: RAC-alpha serine/threonine-protein kinase (Homo sapiens) (UniProt P31749); experiment: Inhibition of AKT assessed as residual activity at 20 uM
[4] = target: Vascular endothelial growth factor receptor 2 (Homo sapiens) (UniProt P35968); experiment: Inhibition of KDR assessed as residual activity at 20 uM
[5] = target: T1, Hepatocyte growth factor receptor
Description: (§1) Inhibition of human recombinant His-tagged c-Met by TR-FRET assay

[6] = target: High affinity nerve growth factor receptor (Homo sapiens) (UniProt P04629); experiment: Inhibition of TrkA assessed as residual activity at 20 uM
[7] = target: T1, Hepatocyte growth factor receptor; experiment: Inhibition of c-Met phosphorylation in human MKN45 cells after 1 hr; type: cell-based, MKN-45
[8] = target: RAC-alpha serine/threonine-protein kinase (Homo sapiens) (UniProt P31749); experiment: Inhibition of AKT phosphorylation in human MKN45 cells after 1 hr by Western blot analysis; type: cell-based; conditions: MKN-45
[9] = target: T2, Tyrosine-protein kinase Mer (Homo sapiens) (UniProt Q12866); experiment: Inhibition of Mer assessed as residual activity at 20 uM
T2 sequence (whole entry): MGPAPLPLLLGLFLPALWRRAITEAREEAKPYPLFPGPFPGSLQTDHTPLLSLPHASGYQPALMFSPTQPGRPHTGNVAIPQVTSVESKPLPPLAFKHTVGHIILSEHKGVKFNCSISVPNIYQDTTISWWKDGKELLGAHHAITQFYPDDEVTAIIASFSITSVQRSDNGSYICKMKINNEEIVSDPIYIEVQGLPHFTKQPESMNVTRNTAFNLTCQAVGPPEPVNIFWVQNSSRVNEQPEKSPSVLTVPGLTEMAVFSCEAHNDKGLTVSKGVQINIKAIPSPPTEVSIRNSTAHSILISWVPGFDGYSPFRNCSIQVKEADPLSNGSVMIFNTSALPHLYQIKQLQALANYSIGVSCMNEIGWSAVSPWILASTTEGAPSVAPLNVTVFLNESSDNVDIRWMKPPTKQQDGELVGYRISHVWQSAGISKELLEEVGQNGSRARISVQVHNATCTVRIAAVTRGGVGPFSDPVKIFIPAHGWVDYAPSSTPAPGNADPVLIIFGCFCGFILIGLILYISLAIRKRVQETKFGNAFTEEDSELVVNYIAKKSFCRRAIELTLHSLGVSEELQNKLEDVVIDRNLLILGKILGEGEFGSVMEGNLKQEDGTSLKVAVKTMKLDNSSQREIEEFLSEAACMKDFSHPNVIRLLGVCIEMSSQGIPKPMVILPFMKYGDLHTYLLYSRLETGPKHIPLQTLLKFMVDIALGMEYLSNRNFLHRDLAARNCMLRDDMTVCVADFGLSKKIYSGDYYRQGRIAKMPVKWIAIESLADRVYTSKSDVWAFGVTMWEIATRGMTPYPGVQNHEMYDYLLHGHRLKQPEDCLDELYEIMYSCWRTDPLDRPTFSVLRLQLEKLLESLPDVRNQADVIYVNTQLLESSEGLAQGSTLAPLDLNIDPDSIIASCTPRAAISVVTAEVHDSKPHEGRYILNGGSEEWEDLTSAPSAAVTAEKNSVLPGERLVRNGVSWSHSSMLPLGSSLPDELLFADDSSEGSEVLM

[10] = target: Mitogen-activated protein kinase 1 (Homo sapiens) (UniProt P28482); experiment: Inhibition of ERK2 phosphorylation in human MKN45 cells after 1 hr by Western blot analysis; type: cell-based; conditions: MKN-45
[11] = target: Macrophage-stimulating protein receptor (Homo sapiens) (UniProt Q04912); experiment: Inhibition of Ron assessed as residual activity at 20 uM
[12] = target: Mitogen-activated protein kinase 3 (Homo sapiens) (UniProt P27361); experiment: Inhibition of ERK1 assessed as residual activity at 20 uM
[13] = target: Mitogen-activated protein kinase 1 (Homo sapiens) (UniProt P28482); experiment: Inhibition of ERK2 assessed as residual activity at 20 uM
Hepatocyte = experiment: Clearance rate in hepatocytes; type: ADME, cell-based, Liver
[14] = target: T1, Hepatocyte growth factor receptor; remark: listed apart in the source
Description: as §1

[15] = target: T1, Hepatocyte growth factor receptor; experiment: Inhibition of human recombinant His-tagged c-Met at 20 uM by TR-FRET assay

Q: Which results are given for O=S(=O)(c1cccc2nonc12)n1ccc2ncc(-c3cnn(C4CCNCC4)c3)cc21?
A: inhibition [1]: Active; IC50 [2]: 0.13 µM; Activity [3]: 88%; Activity [4]: 3%; IC50 [5]: 0.009 µM; Activity [6]: 18%; IC50 [7]: 0.2 µM; inhibition [8]: Active; Activity [9]: 19%; inhibition [10]: Active; Activity [11]: 29%; Activity [12]: 88%; inhibition [13]: inactive

Q: For O=S(=O)(c1c(Cl)nc2sccn12)n1ccc2ncc(-c3cnn(C4CCNCC4)c3)cc21, which CL (Hepatocyte) is on record?
A: Its CL is 0.3 s⁻¹.

Q: With c1ccc(Cn2ccc3ncccc32)cc1 as the compound, how does the IC50 [14] read?
A: Its IC50 is “Inactive”.

Q: For O=S(=O)(c1c(Cl)nc2sccn12)n1ccc2ncc(N3CCNCC3)cc21, which CL (Hepatocyte) is on record?
A: The CL was 1 s⁻¹.

Q: With O=[N+]([O-])c1ccc(S(=O)(=O)n2ccc3ncccc32)cc1 as the compound, how does the inhibition [15] read?
A: Its inhibition is 16%.
